# Source: patent US20070154405A1, “AEROSOL APPARATUS CONTAINING A COMPOSITION FOR APPLYING SIMULTANEOUSLY SEVERAL TOPICAL STIMULI” (priority 2005, published 2007)
# Values joined by “and” are separate entries in the source; they are usually repeats but may differ in a detail not shown here. Equal entries are not always repeated.
# Experiments:
# Atopic Dermatitis = test: Clinical Study 2: randomized single blind comparison of N1 and Hydrocortisone 1% in atopic dermatitis, SASSAD severity score; assay type: in vivo, human
# Text: The patients taking part in the clinical studies were given free kits of the aerosol apparatus of the present invention and a set of instructions detailing method of use as follows: 1) Remove clothing of the area of application. 2) If the face needs to be treated, the eyes should be closed or masked (for babies or small children) 3) Hold the apparatus at a distance of 10 cm-20 cm approximately. 4) Press the apparatus's actuator to release the water-based particles. 5) Apply for a few seconds or as needed then leave the treated areas to dry untouched. Repeat as many times as needed until the symptoms ease. 6) In chronic cases and in order to speed the healing process, apply a daily regimen of four times per day, once before bedtime until symptoms reduce or disappear.
# 125 Patients took part in a comparative, randomized, single (observer) blind, controlled clinical study.
# The scoring system used to evaluate the results of both groups is “Six area, six sign atopic dermatitis (SASSAD) severity score [Jones J B. Six area, six sign atopic dermatitis (SASSAD) severity score: A simple system for monitoring disease activity in atopic dermatitis. Br J Dermatol. 1996; 135 (Suppl 48): 25-30] […] The signs are: Dryness, lichenification, cracking, erythema, exudation and excoriation. the six areas of the body are head, neck, trunk, arms, hands, legs and feet. The severity of the lesions are assessed as 0, 1, 2 and 3 for no lesion, mild, moderate and severe lesions respectively for each sign in each body area resulting in a score of maximum 18 for each sign. The six signs were evaluated objectively by the investigating physicians. Itching being a subjective symptom was evaluated by the patient.
# The atopic dermatitis diagnosis was based on [Hanifin J. M., Rajka G. Diagnostic Features of Atopic Dermatitis, Acta Derma (Stock) Suppl. 92:44-47, 1980].
# [1] = tested on: Itching (Atopic Dermatitis); test: Clinical Study 2: itching by patient VAS in atopic dermatitis patients; assay type: in vivo, human
# Text: 125 Patients took part in a comparative, randomized, single (observer) blind, controlled clinical study. […] The age difference for both groups of males and females was statistically insignificant t=0.551, P=0.582 and t=1.307, P=0.194 respectively. […] The similar distribution allowed for a matching analysis with no statistical difference where Chi-square test=0.001, P=0.976. Due to the subjective nature of this symptom, all the patients were given VAS (Visual analogue scale graded 0=no itch to 10=severe itch) to complete at home twice daily, once in the morning and once in the evening, on the fifth, sixth and seventh day, after allowing for a washout period of four days. Table IX clarify the mean VAS score in both groups after treatment with their respective intervention. The N1 group has experienced a significant decline in their VAS score throughout the 5th, 6th and 7th days where paired t test for the decline in the 5th day=6.96, P=0.001 and for the 6th day=6.74, P=0.001 and for the 7th day=2.76, p=0.006.
# [2] = Base score, listed as hydrocortisone
# [3] = Week 1, listed as hydrocortisone
structure (smiles),measurement,setting,value
C[C@]12CCC(=O)C=C1CC[C@@H]1[C@@H]2[C@@H](O)C[C@@]2(C)[C@H]1CC[C@]2(O)C(=O)CO [Hydrocortisone],Mean Cracking score,Atopic Dermatitis; Base score,1.17
same,Mean Dryness score,Atopic Dermatitis; Base score,4.32
same,Mean Erythema score,Atopic Dermatitis; Base score,3.6
same,Mean Excoriation score,Atopic Dermatitis; Base score,2.7
same,Mean Exudation score,Atopic Dermatitis; Base score,3.18
same,Mean Lichenification score,Atopic Dermatitis; Base score,2.44
same,Mean Erythema score,Atopic Dermatitis; [2],3.6±2.5
same,Mean Lichenification score,Atopic Dermatitis; [2],2.44±1.7
same,Mean Dryness score,Atopic Dermatitis; Week 1,2.9
same,Mean Erythema score,Atopic Dermatitis; Week 1,2.9
same,Mean Excoriation score,Atopic Dermatitis; Week 1,1.97
same,Mean Exudation score,Atopic Dermatitis; Week 1,2.5
same,Mean Lichenification score,Atopic Dermatitis; Week 1,1.55
same,Mean Exudation score,Atopic Dermatitis; [3],2.5±2.4
same,Mean Lichenification score,Atopic Dermatitis; [3],1.55±1.9
same,Mean Dryness score,Atopic Dermatitis; Week 2,2.13
same,Mean Erythema score,Atopic Dermatitis; Week 2,1.8
same,Mean Excoriation score,Atopic Dermatitis; Week 2,1.6
same,Mean Lichenification score,Atopic Dermatitis; Week 2,.82
same,Mean Lichenification score,"Atopic Dermatitis; Week 2, listed as hydrocortisone",0.82±1.3
same,group cleared of atopic dermatitis (SASSAD score of 0 or 1),Atopic Dermatitis; after Week One,14%
same,group cleared of Atopic dermatitis,"Atopic Dermatitis; after two weeks treatment, total",11%
same,patients cleared from atopic dermatitis (SASSAD score=0),Atopic Dermatitis; after week one,9 patients
same,"patients cleared from atopic dermatitis (SASSAD score=0), percent of group",Atopic Dermatitis; after week one,3.81%
same,Mean SASSAD score,"Atopic Dermatitis; at baseline, before treatment",17.51±7.37 and 17.52 and 17.5
same,Mean SASSAD score,"Atopic Dermatitis; at baseline, before treatment, listed as hydrocortisone",17.52±7.37
same,group cleared of atopic dermatitis (SASSAD score of 0 or 1),Atopic Dermatitis; at the end of Week Two,6.3%
same,Mean SASSAD score,Atopic Dermatitis; end of week one,12.82±8.34 and 12.52±8.34 and 12.82 and 12.5
same,Mean SASSAD score,"Atopic Dermatitis; end of week two, patients who continued treatment",8.4±6 and 8.4
same,Mean SASSAD score,"Atopic Dermatitis; end of week two, patients who continued treatment, listed as hydrocortisone",8.4±6
same,"itch free duration, mean",[1]; 3 day self-monitoring period,1.76 ± 1.21 h
same,Mean itch VAS (0=no itch to 10=severe itch),[1]; Day 5 Evening,7.69
same,Mean itch VAS (0=no itch to 10=severe itch),[1]; Day 5 Morning,8.01
same,Mean itch VAS (0=no itch to 10=severe itch),"[1]; Day 5 Morning, listed as hydrocortisone",8.01±1.65
same,Mean itch VAS (0=no itch to 10=severe itch),[1]; Day 6 Evening,7.06
same,Mean itch VAS (0=no itch to 10=severe itch),[1]; Day 6 Morning,7.17
same,Mean itch VAS (0=no itch to 10=severe itch),[1]; Day 7 Evening,6.58
same,Mean itch VAS (0=no itch to 10=severe itch),"[1]; Day 7 Evening, listed as hydrocortisone",6.58±1.97
same,Mean itch VAS (0=no itch to 10=severe itch),[1]; Day 7 Morning,6.63
same,Mean itch VAS (0=no itch to 10=severe itch),"[1]; Day 7 Morning, listed as hydrocortisone",6.63±1.93
